Key:
[1] = test system: Mus musculus; experiment: In vivo inhibition of 11beta-HSD1 in mouse assessed as inhibition of cortisone to cortisol conversion at 100 mg/kg relative to control; format: functional
[2] = test system: Mus musculus; experiment: In vivo inhibition of 11beta-HSD1 in mouse assessed as inhibition of cortisone to cortisol conversion at 5 mg/kg relative to control; format: functional
[3] = Clearance in rat; format: ADME, organism-based; details: in vivo
[4] = Oral bioavailability in rat; format: ADME, organism-based; details: in vivo
[5] = Inhibition of cytochrome P450 (unknown origin); format: ADME, Homo sapiens
[6] = test system: Mus musculus; experiment: Ex vivo inhibition of 11beta-HSD1 in mouse fat at 20 mg/kg relative to control; format: functional
[7] = biological target: T1, 11-beta-hydroxysteroid dehydrogenase type 2 (Homo sapiens, UniProt P80365); experiment: Inhibition of human 11beta-HSD2
T1 sequence (P80365 whole entry): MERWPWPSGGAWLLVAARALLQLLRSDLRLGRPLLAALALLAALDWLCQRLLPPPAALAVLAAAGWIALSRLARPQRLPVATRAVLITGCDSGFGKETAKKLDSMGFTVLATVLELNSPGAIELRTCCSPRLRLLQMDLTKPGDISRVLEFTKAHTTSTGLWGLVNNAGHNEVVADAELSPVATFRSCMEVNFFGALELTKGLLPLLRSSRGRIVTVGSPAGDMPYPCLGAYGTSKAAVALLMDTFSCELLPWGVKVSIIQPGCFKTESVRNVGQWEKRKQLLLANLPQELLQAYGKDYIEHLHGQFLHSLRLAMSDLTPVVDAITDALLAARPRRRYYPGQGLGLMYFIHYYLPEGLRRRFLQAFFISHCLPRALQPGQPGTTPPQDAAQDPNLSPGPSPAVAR

[8] = biological target: 11-beta-hydroxysteroid dehydrogenase 1 (Homo sapiens, UniProt P28845); experiment: Inhibition of human 11beta-HSD1
[9] = test system: Mus musculus; experiment: Reduction in fasting blood glucose level in high fat diet-fed STZ-induced diabetes mouse model at 30 mg/kg bid for 9 days relative to vehicle-treated control; format: functional; design: scale not given: the % may be the effect or the level left
[10] = biological target: T2, 11-beta-hydroxysteroid dehydrogenase type 2 (Mus musculus, UniProt P51661); experiment: Inhibition of mouse 11beta-HSD2
T2 sequence (P51661 whole entry): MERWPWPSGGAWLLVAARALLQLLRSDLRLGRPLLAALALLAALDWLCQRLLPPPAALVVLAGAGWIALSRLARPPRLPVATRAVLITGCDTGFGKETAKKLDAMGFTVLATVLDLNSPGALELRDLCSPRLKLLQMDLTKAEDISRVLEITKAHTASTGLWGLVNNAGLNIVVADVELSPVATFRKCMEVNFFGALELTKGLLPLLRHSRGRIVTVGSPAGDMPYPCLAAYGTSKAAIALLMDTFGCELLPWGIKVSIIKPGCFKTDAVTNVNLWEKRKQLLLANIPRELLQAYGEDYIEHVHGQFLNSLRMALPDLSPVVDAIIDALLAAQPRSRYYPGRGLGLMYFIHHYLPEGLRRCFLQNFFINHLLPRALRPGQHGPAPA

[11] = test system: Mus musculus; experiment: In vivo inhibition of 11beta-HSD1 in mouse assessed as inhibition of [3H]cortisone to [3H]cortisol conversion at 10 mg/kg, po measured after 1 hr relative to control; format: functional
[12] = test system: Mus musculus; experiment: In vivo inhibition of 11beta-HSD1 in mouse assessed as inhibition of [3H]cortisone to [3H]cortisol conversion at 10 mg/kg, po measured after 4 hrs relative to control; format: functional
[13] = test system: Mus musculus; experiment: Reduction in body weight in diet-induced obese mouse model at 20 mg/kg bid for 11 days relative to vehicle-treated control; format: functional; design: scale not given: the % may be the effect or the level left
[14] = test system: Mus musculus; experiment: Reduction in cumulative food intake in diet-induced obese mouse model at 20 mg/kg bid for 11 days relative to vehicle-treated control; format: functional; design: scale not given: the % may be the effect or the level left
[15] = test system: Mus musculus; experiment: Reduction in fasting blood glucose level in diet-induced obese mouse model at 20 mg/kg bid for 11 days relative to vehicle-treated control; format: functional; design: scale not given: the % may be the effect or the level left
[16] = test system: Mus musculus; experiment: Reduction in postprandial blood glucose level in high fat diet-fed STZ-induced diabetes mouse model at 30 mg/kg bid for 9 days relative to vehicle-treated control; format: functional; design: scale not given: the % may be the effect or the level left
[17] = test system: Mus musculus; experiment: Reduction in aortic total cholesterol accumulation in high fat diet-fed mouse model at 10 mg/kg/day for 8 weeks relative to vehicle-treated control; design: scale not given: the % may be the effect or the level left
[18] = Inhibition of N-terminal His-tagged full length dog 11beta-HSD1 assessed as inhibition of cortisone to cortisol conversion preincubated for 25 mins measured after 2 hrs by HTRF assay; design: species or system Canis lupus familiaris
[19] = biological target: T3, 11-beta-hydroxysteroid dehydrogenase 1 (Mus musculus, UniProt P50172); experiment: Inhibition of mouse 11beta-HSD1
[20] = Oral bioavailability in mouse; format: ADME, organism-based; details: in vivo
[21] = Clearance in mouse; format: ADME, organism-based; details: in vivo
[22] = species on record: Mus musculus; experiment: Reduction in liver corticosterone level in adrenalectomized mouse model; format: functional
[23] = biological target: T3, 11-beta-hydroxysteroid dehydrogenase 1; experiment: Inhibition of mouse 11beta-HSD1 expressed in HEK293 cells; format: cell-based
[24] = biological target: 11-beta-hydroxysteroid dehydrogenase 1 (Rattus norvegicus, UniProt P16232); experiment: Inhibition of rat 11beta-HSD1 expressed in HEK293 cells; format: cell-based
[25] = species on record: Homo sapiens; experiment: Reduction in hBA1c in type 2 diabetic patient; format: functional; design: scale not given: the % may be the effect or the level left
[26] = species on record: Homo sapiens; experiment: Toxicity in type 2 diabetic patient assessed as increase in LDL-cholesterol level at 6 mg/day relative to placebo-control; format: organism-based; details: in vivo
[27] = species on record: Homo sapiens; experiment: Toxicity in type 2 diabetic patient assessed as increase in circulating adrenal androgen at 6 mg/day relative to placebo-control; format: organism-based; details: in vivo
[28] = test system: Cynomolgus monkey; experiment: In vivo inhibition of 11beta-HSD1 in cynomolgus monkey assessed as inhibition of prednisone to prednisolone conversion at 0.1 to 3 mg/kg relative to control; format: functional, Macaca fascicularis; details: dose mg/kg 0.1-3
[29] = test system: Cynomolgus monkey; experiment: Reduction in plasma insulin level in cynomolgus monkey at 0.1 to 3 mg/kg; format: functional, Macaca fascicularis; details: dose mg/kg 0.1-3
[30] = Tmax in healthy human by 14 day test; format: ADME, organism-based; details: in vivo
[31] = Elimination half life in healthy human by 14 day test; format: ADME, organism-based; details: in vivo, read-out: beta t1/2 (converted)
[32] = Clearance in healthy human by 14 day test; format: ADME, organism-based; details: in vivo
[33] = species on record: Homo sapiens; experiment: Inhibition of prednisone to prednisolone conversion in healthy human at 15 mg qd relative to control; format: functional
[34] = species on record: Homo sapiens; experiment: Reduction in 5alpha/5beta-tetrahydrocortisol to tetrahydrocortisone ratio in healthy human at 15 mg qd relative to control; format: functional
[35] = Drug excretion in healthy human urine; format: ADME, tissue-based; details: read-out: Drug excretion
[36] = biological target: Voltage-gated inwardly rectifying potassium channel KCNH2 (Homo sapiens, UniProt Q12809); experiment: Inhibition of human ERG
[37] = test system: Mus musculus; experiment: Reduction in plasma glucose level in ob/ob mouse at 200 mg/kg/day for 5 days measured after 5 days; format: functional; design: scale not given: the % may be the effect or the level left
[38] = species on record: Homo sapiens; experiment: Reduction in LDL-cholesterol in overweight/obese patient with hypertension at 7 mg relative to control; format: functional; design: scale not given: the % may be the effect or the level left
[39] = species on record: Homo sapiens; experiment: Reduction in HDL-cholesterol in overweight/obese patient with hypertension at 7 mg relative to control; format: functional; design: scale not given: the % may be the effect or the level left
[40] = species on record: Homo sapiens; experiment: Reduction in body weight in overweight/obese patient with hypertension at 7 mg relative to control; format: functional
[41] = species on record: Homo sapiens; experiment: Toxicity in overweight/obese patient with hypertension assessed as increase in adrenal androgen level at 7 mg/day relative to control; format: organism-based; details: in vivo

T3 sequence (P50172 whole entry): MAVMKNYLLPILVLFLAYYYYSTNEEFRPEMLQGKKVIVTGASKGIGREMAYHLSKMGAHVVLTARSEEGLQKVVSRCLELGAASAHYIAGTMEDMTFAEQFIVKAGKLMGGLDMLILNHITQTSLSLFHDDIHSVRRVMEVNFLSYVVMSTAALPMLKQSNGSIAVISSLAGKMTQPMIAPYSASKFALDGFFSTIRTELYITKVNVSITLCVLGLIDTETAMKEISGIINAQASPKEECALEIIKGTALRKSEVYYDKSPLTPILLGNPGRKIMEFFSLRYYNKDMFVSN
11-beta-hydroxysteroid dehydrogenase 1 (Rattus norvegicus, UniProt P16232), sequence (P16232 whole entry): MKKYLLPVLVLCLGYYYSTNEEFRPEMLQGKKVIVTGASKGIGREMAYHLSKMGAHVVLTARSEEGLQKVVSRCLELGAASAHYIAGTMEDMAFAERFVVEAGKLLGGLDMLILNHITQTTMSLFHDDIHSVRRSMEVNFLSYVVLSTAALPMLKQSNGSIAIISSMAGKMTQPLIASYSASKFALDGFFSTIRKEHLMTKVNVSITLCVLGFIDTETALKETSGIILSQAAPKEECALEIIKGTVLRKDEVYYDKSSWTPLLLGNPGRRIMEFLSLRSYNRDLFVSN
11-beta-hydroxysteroid dehydrogenase 1 (Homo sapiens, UniProt P28845), sequence (P28845 whole entry): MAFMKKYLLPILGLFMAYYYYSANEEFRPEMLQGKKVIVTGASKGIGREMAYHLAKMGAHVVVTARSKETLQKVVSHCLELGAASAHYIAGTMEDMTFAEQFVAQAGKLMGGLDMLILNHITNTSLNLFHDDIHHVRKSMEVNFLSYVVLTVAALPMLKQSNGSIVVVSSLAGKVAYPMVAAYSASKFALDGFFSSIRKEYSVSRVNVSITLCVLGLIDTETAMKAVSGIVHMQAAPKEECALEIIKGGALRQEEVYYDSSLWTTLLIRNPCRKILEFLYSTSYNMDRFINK
Voltage-gated inwardly rectifying potassium channel KCNH2, sequence (Q12809 whole entry): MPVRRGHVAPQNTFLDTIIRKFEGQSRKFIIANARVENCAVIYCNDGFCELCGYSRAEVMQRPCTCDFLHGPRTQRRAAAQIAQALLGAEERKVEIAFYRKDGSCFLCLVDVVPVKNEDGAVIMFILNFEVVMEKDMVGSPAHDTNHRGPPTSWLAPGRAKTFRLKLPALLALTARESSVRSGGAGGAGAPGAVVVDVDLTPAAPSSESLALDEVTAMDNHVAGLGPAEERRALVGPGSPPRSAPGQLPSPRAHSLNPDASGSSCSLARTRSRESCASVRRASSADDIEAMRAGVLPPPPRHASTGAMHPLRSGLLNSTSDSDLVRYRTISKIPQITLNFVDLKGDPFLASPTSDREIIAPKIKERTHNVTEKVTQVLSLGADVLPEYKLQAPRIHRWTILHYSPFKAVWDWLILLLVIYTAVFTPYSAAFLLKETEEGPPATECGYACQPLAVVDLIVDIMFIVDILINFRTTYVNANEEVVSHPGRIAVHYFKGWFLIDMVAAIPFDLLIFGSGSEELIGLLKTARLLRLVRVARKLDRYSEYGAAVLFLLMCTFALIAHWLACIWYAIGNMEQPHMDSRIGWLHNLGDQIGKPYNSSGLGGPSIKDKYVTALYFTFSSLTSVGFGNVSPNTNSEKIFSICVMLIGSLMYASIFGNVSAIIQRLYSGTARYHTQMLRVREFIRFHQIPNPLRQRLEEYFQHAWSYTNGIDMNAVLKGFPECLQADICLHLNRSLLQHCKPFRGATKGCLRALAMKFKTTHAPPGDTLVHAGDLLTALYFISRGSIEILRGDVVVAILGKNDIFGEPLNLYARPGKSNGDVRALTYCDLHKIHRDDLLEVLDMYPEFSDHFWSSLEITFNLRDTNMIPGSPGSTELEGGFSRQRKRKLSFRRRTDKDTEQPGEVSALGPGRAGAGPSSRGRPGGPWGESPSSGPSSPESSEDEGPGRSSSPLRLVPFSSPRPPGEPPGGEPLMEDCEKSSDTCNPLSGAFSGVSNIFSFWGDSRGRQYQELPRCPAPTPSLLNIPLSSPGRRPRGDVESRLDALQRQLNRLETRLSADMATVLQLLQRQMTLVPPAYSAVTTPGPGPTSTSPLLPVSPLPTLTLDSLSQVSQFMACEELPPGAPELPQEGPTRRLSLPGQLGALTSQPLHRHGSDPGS

In the case of `CCN1CCC[C@@H]1C(=O)NC1C2CC3CC(C2)CC1C3` (stereo partly specified), the “%max” value [1] is reported as 82% and the “%max” value [2] is reported as 50%.

In the case of `CC1CN(CC(=O)N[C@H]2C3CC4CC2C[C@](C(N)=O)(C4)C3)S(=O)(=O)N(c2c(Cl)cc(Cl)cc2Cl)C1` (stereo partly specified), the clearance [3] is reported as 11.7 mL/min/kg, the bioavailability [4] is reported as 69% and the IC50 [5] is reported as greater than 100000 nM. It also gave an inhibition in vivo at 20 mg/kg [6] of 96%.

`C1CCc2nnc(C34CC5CC(CC(C5)C3)C4)n2CC1` showed an IC50 [7] greater than 3000 nM, an IC50 [8] of 8 nM and an Activity [9] of 37%. For the same molecule, the IC50 [10] was greater than 10000 nM, the inhibition in vivo at 10 mg/kg [11] was 59% and the inhibition in vivo at 10 mg/kg [12] was 17%. The Activity [13] was 7%, the Activity [14] was 12% and the Activity [15] was 15%. It also gave an Activity [16] of 37% and an Activity [17] of 84%.

Molecule `CSc1nc(N2C[C@@H]3[C@H](C2)[C@H]3C(=O)O)ccc1C(=O)NC12CC3CC(CC(C3)C1)C2` has an IC50 [18] of 120 nM.

Molecule `CC1(C)C(=O)N(c2cccc(S(C)(=O)=O)c2)C1c1cccc2nccnc12` (stereo unspecified) has an IC50 [19] of 350 nM, a bioavailability [20] of 22% and a clearance [21] of 42 mL/min/kg.

For `CN(C(=O)c1csc(CNS(=O)(=O)c2cccc(Cl)c2)n1)C1CCCCCC1`, the IC50 [19] was 307 nM.

In the case of `Cc1c(Cl)cccc1S(=O)(=O)N1CCC[C@H](C(=O)N[C@H]2C[C@@H]3CC[C@@]2(C)C3(C)C)C1`, the IC50 [19] is reported as 18 nM.

Molecule `Cc1c(Cl)cccc1S(=O)(=O)N1CCCC[C@@H]1C(=O)N[C@H]1C2CC3CC1C[C@](O)(C3)C2` has an IC50 [19] of 15 nM, a bioavailability [20] of 3% and a clearance [21] of 130 mL/min/kg.

With `COc1cc(C(=O)Nc2ccc(C(=O)N3CCCCC3)c(O)c2)cc(OC)c1OC` the “inhibition (INH)” value [22] was 73%.

`CS(=O)(=O)NCCC(=O)N1CCC(c2cc(C(=O)N3CCC[C@H]4CCCC[C@H]43)cs2)CC1` showed an IC50 [23] of 528 nM and an IC50 [24] of 287 nM.

For `CCN(CC)C(=O)Cc1csc(NS(=O)(=O)c2cccc(Cl)c2C)n1`, the IC50 [7] was greater than 10000 nM.

`F[C@H]1C[C@](c2ccc(Cl)cc2)(c2nnc(C3CC3)n2C2CC2)C1` gave an Activity [25] of -0.3%, an Activity [26] of 10.4% and an Activity [27] of 20%.

With `Cc1c(Cl)cccc1S(=O)(=O)Nc1nc(CC(=O)N2CCN(C)CC2)cs1` the IC50 [7] was greater than 10000 nM and the bioavailability [20] was 21%.

With `N#Cc1ccc(-c2ccc(S(=O)(=O)Nc3cccc(N)n3)cc2)cc1` the “%max” value [28] was 87%, the “%max” value [29] was 60% and the Tmax [30] was 1 h. For the same molecule, the half-life [31] was 30 h, the clearance [32] was 16.7 mL/min and the “%max” value [33] was 37%. For the same molecule, the “%max” value [34] was 26% and the dose excreted [35] was less than 1%.

In the case of `O=C(CN1C(C(=O)c2ccccc2)=C(O)c2ccccc2S1(=O)=O)c1ccccc1`, the IC50 [36] is reported as greater than 100000 nM and the Activity [37] is reported as -27%.

With `Cn1c(-c2ccccc2)nnc1C12CC3CC(CC(C3)C1)C2` [FIG 1] the inhibition in vivo at 10 mg/kg [11] was 85% and the inhibition in vivo at 10 mg/kg [12] was 47%.

With `CCS(=O)(=O)CCCC12CCC(c3nnc(-c4ccccc4C(F)(F)F)n3C)(CC1)CC2` [MK-0736] the Activity [38] was -12.3%, the Activity [39] was -6.3% and the Activity [40] was -1.4 kg. For the same molecule, the “fold change (FC)” value [41] was 2.

— ChEMBL document CHEMBL3286258, “Medicinal chemistry of inhibitors of 11β-hydroxysteroid dehydrogenase type 1 (11β-HSD1)” (J Med Chem, 2014)
